Measured values published in US20230270692A1, “COMPOUNDS FOR CHRONIC DISORDERS” (Pillai Universal LLC, priority 2020, published 2023).
Read-outs that look alike come from different tables or passages of the source.

Key:
normal pancreatic cells = test: Viability of normal pancreatic cells; type: cell-based, Human; details: at 6 h
Description: (§1) The synthesized compounds of Formula 1-4 were evaluated for cell proliferation, apoptosis, cell cycle arrest, the generation of reactive oxygen species and calcium were measured using MTT assay and flow cytometry, respectively. The expression of apoptosis- and proliferation-related proteins was determined by western blotting. The effect of molecules on apoptosis-related mRNA expression in cancer cells was detected by RT-PCR.
(§2) Changes in cell morphology were detected by the presence of cell membrane blebbing, chromatin condensation, and formation of apoptotic bodies (FIG. 10A).

[1] = system: xenograft nude mice models (triple-negative breast cancer, pancreatic, liver, colon cancer); test: In vivo metastasis / stage IV tumor studies in xenograft nude mice versus standard drugs
[2] = system: xenograft nude mice models (triple-negative breast cancer, pancreatic, liver, colon cancer); details: mouse, in vivo
[3] = system: panel of human normal cell lines; test: MTT cytotoxicity of anticancer agents on normal cell lines, alone and with Compound I; details: Homo sapiens, read-out: IC50 (average)
Description: The cytotoxicity of anticancer agents was studied using a panel of human normal cell lines alone and with the combination of Compound I of the present invention. The cytotoxicity effect was determined by MTT assay. The following cell lines were used: Human epidermal keratinocytes cells (HaCaT), Human dermal fibroblast (HDF), Human bone marrow mesenchymal stem cells (HBMSCs), Human normal hepatocytes cells (THLE2), Human cardiac cells (AC-16), Human intestinal epithelial cells (HIEC-6), Human neuronal cells (SHSY-5Y), Human vascular Endothelial cells (HuVECs), Human lung epithelial cells (Calu-3), Human lung fibroblast (MRC 5).
Next, the cells were treated with anticancer agents in combination with Compound I of the present invention.

[4] = system: Pancreatic adenocarcinoma cells (PANC); test: MTT cell viability of pancreatic cancer cells; type: cell-based, Human; details: Homo sapiens, Pancreatic cancer cell
Description: as §1, §2

PANC-1 xenograft = PANC-1 xenograft mouse model; type: in vivo; details: day 5 to day 30; 25 mg/kg gemcitabine, 10 mg/kg Compound I
Description: Study Design: A PANC-1 xenograft mouse model was carried out according to the experimental design described in FIG. 21A. Tumor volume was monitored over a 30-day period upon administration of PBS alone (vehicle control), 25 mg/kg gemcitabine, and 10 mg/kg Compound I.

Molecule | mortality ([1]; nude, mouse, in vivo) [%] | mortality ([1]; treating stage IV cancer) [%] | Toxicity [2] | IC50 [3] [µM] | other results
O=c1[nH]cc(F)c(=O)[nH]1 [5-Fluorouracil] | 70 | 70 | Cardiotoxicity, Hepatotoxicity | 12.9 to 40.5 | Toxicity (normal pancreatic cells): 40.32±0.98%; Antioxidant Activity (increased antioxidant parameters) ([1]; mouse, in vivo): 10% of; Tumor volume (reduction / changes) ([1]; mouse, in vivo): 35%; cytotoxicity at 10 µM ([4]; 3 h, read-out: decrease in viable cells): 30.21 ± 0.21%; IC50 ([4]; PANC cells, after 24 hours of exposure): 5.21 ± 0.19 µM
CCN(CC)CCCC(C)Nc1ccnc2cc(Cl)ccc12 (stereo not shown) [Chloroquine] | – | – | – | 12.9 to 40.5 | –
COc1cccc2c1C(=O)c1c(O)c3c(c(O)c1C2=O)C[C@@](O)(C(=O)CO)C[C@@H]3O[C@H]1C[C@H](N)[C@H](O)[C@H](C)O1 [Doxorubicin] | – | – | – | 12.9 to 40.5 | –
Nc1ccn([C@@H]2O[C@H](CO)[C@@H](O)C2(F)F)c(=O)n1 [Gemcitabine] | 50 | 50 | Developed | 12.9 to 40.5 | CSCs (target on CSCs population) ([1]; mouse, in vivo): 5% Target on; tumor volume (PANC-1 xenograft): steadily increases
CCN(CCO)CCCC(C)Nc1ccnc2cc(Cl)ccc12 (stereo not shown) [Hydroxychloroquine] | – | – | – | 12.9 to 40.5 | –
CCc1c2c(nc3ccc(OC(=O)N4CCC(N5CCCCC5)CC4)cc13)-c1cc3c(c(=O)n1C2)COC(=O)[C@]3(O)CC [Irinotecan] | – | – | – | 12.9 to 40.5 | –
Nc1cccc2c1CN(C1CCC(=O)NC1=O)C2=O (stereo not shown) [Revlimid] | 100 | 100 | Cardiotoxicity, Hepatotoxicity, Toxicity to vital organs and normal tissues | – | –
CC[C@]1(O)C[C@H]2CN(CCc3c([nH]c4ccccc34)[C@@](C(=O)OC)(c3cc4c(cc3OC)N(C=O)[C@H]3[C@@](O)(C(=O)OC)[C@H](OC(C)=O)[C@]5(CC)C=CCN6CC[C@]43[C@@H]65)C2)C1 [Vincristine] | – | – | – | 12.9 to 40.5 | –
Avastin: current treatment standard drug, Inhibition of VEGF | – | 60 | – | – | Metastasis (prevention) ([1]; mouse, in vivo): 10%; Toxicity ([1]; mouse, in vivo): Toxic to vital; Tumor volume (reduction / changes) ([1]; mouse, in vivo): 20%; mortality ([1]; mouse, in vivo): 60%
